Experiments:
Assay type in all cases: cell-based
FYN = target: T1, FYN (Homo sapiens, UniProt P06241); experiment: Proteomics, degradation of target kinases in MOLT4 cells: FYN; settings: cell line MOLT4 (FIGS. 7A-7B)
T1 construct: proteomics data on the degradation of target kinases in cell line MOLT4; endogenous in cells; host or cells: MOLT4
Source text: (§1) FIGS. 7A-7B show proteomics data on the degradation of target kinases in cell line MOLT4 (human T lymphoblast; acute lymphoblastic leukemia) using treatment with exemplary compounds SB1-G-181 and SB1-G-200. FIG. 7A indicates in the bottom left corner the exemplary kinase targets (FYN, SRC, BLK, LCK, CSK, ABL1, ABL2, LIMK1, LATS1) in cell line MOLT4 which were degraded by exemplary compound SB1-G-181. FIG. 7B indicates in the bottom left corner the exemplary kinase targets (FYN, SRC, BLK, LCK, CSK, ABL1, ABL2, LIMK1, LATS1) in cell line MOLT4 which were degraded by exemplary compound SB1-G-200.

SRC = target: T2, SRC (Homo sapiens, UniProt P12931); experiment: Proteomics, degradation of target kinases in MOLT4 cells: SRC; settings: cell line MOLT4 (FIGS. 7A-7B)
T2 construct: proteomics data on the degradation of target kinases in cell line MOLT4; endogenous in cells; host or cells: MOLT4
T2 sequence (P12931 whole entry): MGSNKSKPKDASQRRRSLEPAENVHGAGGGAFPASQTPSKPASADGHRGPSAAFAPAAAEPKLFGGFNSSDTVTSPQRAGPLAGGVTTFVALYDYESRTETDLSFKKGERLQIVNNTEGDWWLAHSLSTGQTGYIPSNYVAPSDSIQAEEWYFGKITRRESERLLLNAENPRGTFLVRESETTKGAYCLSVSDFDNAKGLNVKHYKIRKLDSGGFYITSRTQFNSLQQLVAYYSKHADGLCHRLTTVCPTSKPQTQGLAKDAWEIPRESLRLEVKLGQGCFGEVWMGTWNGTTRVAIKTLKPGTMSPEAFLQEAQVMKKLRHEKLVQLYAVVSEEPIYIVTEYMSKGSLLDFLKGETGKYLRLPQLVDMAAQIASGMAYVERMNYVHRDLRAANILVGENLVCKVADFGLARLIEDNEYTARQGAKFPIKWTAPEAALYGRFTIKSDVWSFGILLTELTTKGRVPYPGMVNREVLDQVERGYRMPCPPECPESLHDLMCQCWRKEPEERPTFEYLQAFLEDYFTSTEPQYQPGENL
Source text: as §1

BLK = target: T3, BLK (Homo sapiens, UniProt P51451); experiment: Proteomics, degradation of target kinases in MOLT4 cells: BLK; settings: cell line MOLT4 (FIGS. 7A-7B)
T3 construct: proteomics data on the degradation of target kinases in cell line MOLT4; endogenous in cells; host or cells: MOLT4
T3 sequence (P51451 whole entry): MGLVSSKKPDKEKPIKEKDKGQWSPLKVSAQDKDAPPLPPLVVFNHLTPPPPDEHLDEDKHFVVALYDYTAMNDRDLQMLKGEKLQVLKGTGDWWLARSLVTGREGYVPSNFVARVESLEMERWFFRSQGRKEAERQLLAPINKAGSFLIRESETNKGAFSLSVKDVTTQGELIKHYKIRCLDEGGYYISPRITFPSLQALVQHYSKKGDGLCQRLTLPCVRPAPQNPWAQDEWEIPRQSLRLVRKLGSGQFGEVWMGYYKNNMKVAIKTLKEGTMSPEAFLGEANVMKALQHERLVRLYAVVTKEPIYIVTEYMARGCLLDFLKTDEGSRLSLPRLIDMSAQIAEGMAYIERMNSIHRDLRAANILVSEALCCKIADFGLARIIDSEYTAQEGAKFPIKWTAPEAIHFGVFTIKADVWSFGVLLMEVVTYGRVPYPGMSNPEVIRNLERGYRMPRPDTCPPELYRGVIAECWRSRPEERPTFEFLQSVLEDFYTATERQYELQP
Source text: as §1

LCK = target: T4, LCK (Homo sapiens, UniProt P06239); experiment: Proteomics, degradation of target kinases in MOLT4 cells: LCK; settings: cell line MOLT4 (FIGS. 7A-7B)
T4 construct: proteomics data on the degradation of target kinases in cell line MOLT4; endogenous in cells; host or cells: MOLT4
Source text: as §1

CSK = target: T5, CSK (Homo sapiens, UniProt P41240); experiment: Proteomics, degradation of target kinases in MOLT4 cells: CSK; settings: cell line MOLT4 (FIGS. 7A-7B)
T5 construct: proteomics data on the degradation of target kinases in cell line MOLT4; endogenous in cells; host or cells: MOLT4
Source text: as §1

ABL1 = target: T6, ABL1 (Homo sapiens, UniProt P00519); experiment: Proteomics, degradation of target kinases in MOLT4 cells: ABL1; settings: cell line MOLT4 (FIGS. 7A-7B)
T6 construct: proteomics data on the degradation of target kinases in cell line MOLT4; endogenous in cells; host or cells: MOLT4
T6 sequence (P00519 whole entry): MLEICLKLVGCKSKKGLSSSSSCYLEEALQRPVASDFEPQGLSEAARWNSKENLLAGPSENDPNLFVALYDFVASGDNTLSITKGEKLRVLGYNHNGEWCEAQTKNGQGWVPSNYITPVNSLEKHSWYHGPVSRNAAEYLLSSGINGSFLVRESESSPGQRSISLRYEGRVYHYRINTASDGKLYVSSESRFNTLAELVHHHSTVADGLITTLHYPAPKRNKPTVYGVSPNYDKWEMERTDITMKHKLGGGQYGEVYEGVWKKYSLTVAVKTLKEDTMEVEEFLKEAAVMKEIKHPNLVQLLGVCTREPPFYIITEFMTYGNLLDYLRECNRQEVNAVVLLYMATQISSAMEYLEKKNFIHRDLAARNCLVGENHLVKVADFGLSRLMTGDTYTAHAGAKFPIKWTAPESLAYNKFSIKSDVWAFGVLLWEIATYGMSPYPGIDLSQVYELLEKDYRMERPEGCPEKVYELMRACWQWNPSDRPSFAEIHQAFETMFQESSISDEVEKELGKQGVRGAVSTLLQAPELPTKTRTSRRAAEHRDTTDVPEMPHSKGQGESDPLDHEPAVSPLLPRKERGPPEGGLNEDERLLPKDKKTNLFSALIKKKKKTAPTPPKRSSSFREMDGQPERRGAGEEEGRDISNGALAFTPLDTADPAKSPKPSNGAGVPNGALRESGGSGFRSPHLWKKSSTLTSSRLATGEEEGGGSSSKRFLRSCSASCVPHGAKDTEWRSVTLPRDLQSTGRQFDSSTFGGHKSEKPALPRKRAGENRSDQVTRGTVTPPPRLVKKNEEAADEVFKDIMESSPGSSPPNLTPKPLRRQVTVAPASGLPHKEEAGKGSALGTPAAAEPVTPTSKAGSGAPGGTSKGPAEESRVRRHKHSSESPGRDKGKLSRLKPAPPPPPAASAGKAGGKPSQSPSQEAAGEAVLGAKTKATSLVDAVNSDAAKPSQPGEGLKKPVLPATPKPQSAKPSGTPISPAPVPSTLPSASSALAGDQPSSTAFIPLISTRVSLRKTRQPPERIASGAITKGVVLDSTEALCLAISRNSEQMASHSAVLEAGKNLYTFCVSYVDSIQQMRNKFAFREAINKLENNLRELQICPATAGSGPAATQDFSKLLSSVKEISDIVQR
Source text: as §1

ABL2 = target: T7, ABL2 (Homo sapiens, UniProt P42684); experiment: Proteomics, degradation of target kinases in MOLT4 cells: ABL2; settings: cell line MOLT4 (FIGS. 7A-7B)
T7 construct: proteomics data on the degradation of target kinases in cell line MOLT4; endogenous in cells; host or cells: MOLT4
T7 sequence (P42684 whole entry): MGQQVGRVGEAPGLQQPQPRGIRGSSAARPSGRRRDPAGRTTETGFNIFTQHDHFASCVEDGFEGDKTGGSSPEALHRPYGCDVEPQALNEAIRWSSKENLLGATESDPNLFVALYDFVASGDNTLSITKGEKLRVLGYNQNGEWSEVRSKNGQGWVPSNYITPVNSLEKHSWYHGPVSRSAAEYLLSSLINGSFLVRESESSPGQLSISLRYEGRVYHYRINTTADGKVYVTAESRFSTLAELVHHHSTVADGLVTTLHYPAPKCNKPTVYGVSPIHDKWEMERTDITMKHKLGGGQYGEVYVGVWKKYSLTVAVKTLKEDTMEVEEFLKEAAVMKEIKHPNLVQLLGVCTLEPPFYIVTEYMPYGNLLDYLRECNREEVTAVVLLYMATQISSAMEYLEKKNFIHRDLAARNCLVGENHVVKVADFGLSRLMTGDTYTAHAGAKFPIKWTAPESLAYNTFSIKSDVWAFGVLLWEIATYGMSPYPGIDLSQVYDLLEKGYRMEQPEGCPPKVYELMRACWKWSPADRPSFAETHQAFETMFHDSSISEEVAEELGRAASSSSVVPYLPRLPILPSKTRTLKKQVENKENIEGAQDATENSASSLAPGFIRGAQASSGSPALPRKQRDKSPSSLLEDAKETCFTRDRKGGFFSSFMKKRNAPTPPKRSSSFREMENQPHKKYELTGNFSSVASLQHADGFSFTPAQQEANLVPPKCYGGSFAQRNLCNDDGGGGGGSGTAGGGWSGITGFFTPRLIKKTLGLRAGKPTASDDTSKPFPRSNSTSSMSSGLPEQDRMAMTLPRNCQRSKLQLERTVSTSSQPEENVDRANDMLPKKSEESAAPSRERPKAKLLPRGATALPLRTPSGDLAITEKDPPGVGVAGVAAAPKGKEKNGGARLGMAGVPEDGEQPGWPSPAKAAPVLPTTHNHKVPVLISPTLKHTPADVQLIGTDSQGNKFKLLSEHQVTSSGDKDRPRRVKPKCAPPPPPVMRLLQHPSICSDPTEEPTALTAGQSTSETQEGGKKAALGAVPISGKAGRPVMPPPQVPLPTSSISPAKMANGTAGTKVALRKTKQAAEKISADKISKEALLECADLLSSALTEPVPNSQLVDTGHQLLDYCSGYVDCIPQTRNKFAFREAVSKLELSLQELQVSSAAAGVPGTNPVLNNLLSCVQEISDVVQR
Source text: as §1

LIMK1 = target: T8, LIMK1 (Homo sapiens, UniProt P53667); experiment: Proteomics, degradation of target kinases in MOLT4 cells: LIMK1; settings: cell line MOLT4 (FIGS. 7A-7B)
T8 construct: proteomics data on the degradation of target kinases in cell line MOLT4; endogenous in cells; host or cells: MOLT4
T8 sequence (P53667 whole entry): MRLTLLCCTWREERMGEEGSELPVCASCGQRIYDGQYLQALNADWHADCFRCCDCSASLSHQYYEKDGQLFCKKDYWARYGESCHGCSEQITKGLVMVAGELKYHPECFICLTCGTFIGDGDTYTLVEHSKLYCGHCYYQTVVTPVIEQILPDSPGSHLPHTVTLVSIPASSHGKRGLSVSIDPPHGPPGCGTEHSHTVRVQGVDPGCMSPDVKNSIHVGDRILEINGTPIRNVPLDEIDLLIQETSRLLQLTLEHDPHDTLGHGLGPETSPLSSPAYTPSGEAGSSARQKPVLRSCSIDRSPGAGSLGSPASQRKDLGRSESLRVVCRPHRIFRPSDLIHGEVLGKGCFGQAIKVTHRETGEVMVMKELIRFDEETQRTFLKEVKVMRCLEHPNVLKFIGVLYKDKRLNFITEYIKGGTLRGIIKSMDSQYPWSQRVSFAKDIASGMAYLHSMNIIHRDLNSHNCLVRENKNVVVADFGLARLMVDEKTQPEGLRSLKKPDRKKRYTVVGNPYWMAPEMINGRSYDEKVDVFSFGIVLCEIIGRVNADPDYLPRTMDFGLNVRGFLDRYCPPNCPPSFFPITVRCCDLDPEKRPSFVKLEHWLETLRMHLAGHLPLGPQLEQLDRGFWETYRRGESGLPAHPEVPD
Source text: as §1

LATS1 = target: T9, LATS1 (Homo sapiens, UniProt O95835); experiment: Proteomics, degradation of target kinases in MOLT4 cells: LATS1; settings: cell line MOLT4 (FIGS. 7A-7B)
T9 construct: proteomics data on the degradation of target kinases in cell line MOLT4; endogenous in cells; host or cells: MOLT4
T9 sequence (O95835 1-1130): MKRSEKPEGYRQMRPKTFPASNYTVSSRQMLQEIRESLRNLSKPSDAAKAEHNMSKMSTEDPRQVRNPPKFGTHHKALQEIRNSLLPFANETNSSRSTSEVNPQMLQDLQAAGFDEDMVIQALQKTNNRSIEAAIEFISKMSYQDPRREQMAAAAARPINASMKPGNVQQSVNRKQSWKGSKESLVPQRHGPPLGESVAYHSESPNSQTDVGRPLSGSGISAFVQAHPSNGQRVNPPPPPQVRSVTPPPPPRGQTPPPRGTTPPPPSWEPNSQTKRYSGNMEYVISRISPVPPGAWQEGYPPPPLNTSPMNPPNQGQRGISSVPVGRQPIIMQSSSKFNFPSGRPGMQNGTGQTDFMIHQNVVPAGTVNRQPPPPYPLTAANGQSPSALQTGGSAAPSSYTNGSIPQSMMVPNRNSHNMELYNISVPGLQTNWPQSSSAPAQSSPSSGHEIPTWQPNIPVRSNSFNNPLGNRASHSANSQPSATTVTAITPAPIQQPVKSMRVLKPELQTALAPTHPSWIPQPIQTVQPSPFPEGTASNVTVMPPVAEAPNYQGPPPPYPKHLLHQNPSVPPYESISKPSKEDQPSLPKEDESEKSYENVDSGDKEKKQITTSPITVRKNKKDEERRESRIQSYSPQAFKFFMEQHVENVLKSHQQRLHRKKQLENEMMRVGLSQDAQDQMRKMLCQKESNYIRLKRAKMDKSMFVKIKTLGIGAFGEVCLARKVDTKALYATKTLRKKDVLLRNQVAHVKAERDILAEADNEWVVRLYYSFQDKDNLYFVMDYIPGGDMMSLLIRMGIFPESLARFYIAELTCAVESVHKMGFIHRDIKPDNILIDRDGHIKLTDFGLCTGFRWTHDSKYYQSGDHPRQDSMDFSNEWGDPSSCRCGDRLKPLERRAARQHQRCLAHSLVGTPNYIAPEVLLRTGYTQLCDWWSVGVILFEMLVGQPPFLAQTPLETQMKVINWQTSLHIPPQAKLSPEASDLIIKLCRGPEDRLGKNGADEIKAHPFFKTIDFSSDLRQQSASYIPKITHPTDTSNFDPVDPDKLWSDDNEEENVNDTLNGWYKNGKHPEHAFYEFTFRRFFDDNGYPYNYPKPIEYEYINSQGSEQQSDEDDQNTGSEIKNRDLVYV
Source text: as §1

HCK = target: T10, HCK (Homo sapiens, UniProt P08631); experiment: Western blot protein degradation assessment, HCK
T10 construct: following treatment of MYD88 mutated BCWM.1 cells; endogenous in cells; host or cells: BCWM.1 WM cells (parental and vector/BTK-WT/BTK-C481S transduced); TMD8 ABC-DLBCL cells (transduced)
Method: (§2) SK-6-1 was used as a degrader control compound.
(§3) SK-6-1 was used as a degrader control compound. […] “ABC-DLBCL” is activated B-cell (ABC) lymphoma, diffuse large B-cell lymphoma (DLBCL).
(§4) Western blots were performed for the detection of protein degradation following the cell treatments with HCK degraders using antibodies for HCK (Cell Signaling), BTK (Cell Signaling) or Phospho-BTK (Tyr223) (Abcam). GAPDH was used for determination of protein loading.

BTK [1] = target: T11, BTK (Homo sapiens, UniProt Q06187); experiment: Western blot protein degradation assessment, BTK; settings: MYD88 mutated BCWM.1 cells, 6 hours, Western blot (FIG. 4)
T11 construct: following treatment of MYD88 mutated BCWM.1 cells; endogenous in cells
T11 sequence (Q06187 2-659): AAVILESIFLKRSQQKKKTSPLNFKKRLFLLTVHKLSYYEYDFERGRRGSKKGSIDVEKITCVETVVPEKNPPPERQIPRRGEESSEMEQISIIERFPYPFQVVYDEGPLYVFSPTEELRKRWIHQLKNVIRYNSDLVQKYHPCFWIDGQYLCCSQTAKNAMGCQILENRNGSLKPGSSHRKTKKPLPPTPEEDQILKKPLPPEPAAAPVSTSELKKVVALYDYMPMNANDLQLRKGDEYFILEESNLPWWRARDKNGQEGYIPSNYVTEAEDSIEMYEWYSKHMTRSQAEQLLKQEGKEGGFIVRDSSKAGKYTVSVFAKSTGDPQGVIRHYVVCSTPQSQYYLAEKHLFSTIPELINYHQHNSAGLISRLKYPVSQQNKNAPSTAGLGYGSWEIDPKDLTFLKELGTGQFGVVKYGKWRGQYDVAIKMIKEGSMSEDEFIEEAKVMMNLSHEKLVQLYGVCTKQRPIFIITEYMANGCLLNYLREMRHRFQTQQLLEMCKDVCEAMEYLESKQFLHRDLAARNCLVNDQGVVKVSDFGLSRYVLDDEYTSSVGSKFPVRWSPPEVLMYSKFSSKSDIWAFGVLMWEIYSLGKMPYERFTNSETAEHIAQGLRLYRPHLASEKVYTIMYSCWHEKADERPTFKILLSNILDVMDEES
Method: as §2, §3, §4

BTK [2] = target: T12, BTK (Homo sapiens, UniProt Q06187, C481S); experiment: Western blot protein degradation assessment, BTK; settings: BTK^C481S mutant transduced BCWM.1 WM cells, 6 hours (FIG. 5)
T12 construct: following treatment of MYD88 mutated BCWM.1 cells; endogenous in cells
T12 sequence (Q06187 2-659 C481S): as the sequence (Q06187 2-659) above, with C480S counted along it
Method: as §2, §3, §4

BTK [3] = experiment: Western blot protein degradation assessment, BTK; settings: vector only, BTK^WT or BTK^C481S transduced TMD8 ABC-DLBCL cells, 6 hours (FIG. 6)
Method: as §2, §3, §4

Phospho-BTK (Tyr223) = experiment: Western blot, Phospho-BTK (Tyr223); settings: vector only
Method: as §2, §3, §4

[4] = MYD88 mutated BCWM.1 cells, 6 hours, Western blot (FIG. 4)

SMILES | degradation of FYN (proteomics) (FYN) | degradation of SRC (proteomics) (SRC) | degradation of BLK (proteomics) (BLK) | degradation of LCK (proteomics) (LCK) | degradation of CSK (proteomics) (CSK) | degradation of ABL1 (proteomics) (ABL1) | degradation of ABL2 (proteomics) (ABL2) | degradation of LIMK1 (proteomics) (LIMK1) | degradation of LATS1 (proteomics) (LATS1) | degradation of HCK (HCK; [4]) | degradation of BTK (BTK [1]) | degradation of HCK (HCK; vector only, BTK^WT or BTK^C481S transduced BCWM.1 WM cells, 6 hours (FIG. 5)) | degradation of HCK (HCK; vector only, BTK^WT or BTK^C481S transduced TMD8 ABC-DLBCL cells, 6 hours (FIG. 6)) | degradation of BTK (BTK [2]) | degradation of BTK (BTK [3]) | BTK phosphorylation at Tyr-223 (Phospho-BTK (Tyr223); BTK^WT or BTK^C481S transduced BCWM.1 WM cells, 6 hours (FIG. 5)) | BTK phosphorylation at Tyr-223 (Phospho-BTK (Tyr223); BTK^WT or BTK^C481S transduced TMD8 ABC-DLBCL cells, 6 hours (FIG. 6))
Nc1ncnc2c1c(-c1ccc(Oc3ccccc3)cc1)nn2[C@H]1CC[C@H](N2CCN(CCOCCNC(=O)CNc3cccc4c3C(=O)N(C3CCC(=O)NC3=O)C4=O)CC2)CC1 (stereo partly drawn) [SB1-G-181, N-(2-(2-(4-((1r,4r)-4-(4-amino-3-(4-phenoxyphenyl)-1H-pyrazolo[3,4-d]pyrimidin-1-yl)cyclohexyl)piperazin-1-yl)ethoxy)ethyl)-2-(2-(2,6-dioxopiperidin-3-yl)-1,3-dioxoisoindolin-4-ylamino)acetamide] | degraded | degraded | degraded | degraded | degraded | degraded | degraded | degraded | degraded |  |  |  |  |  |  |  | 
Nc1ncnc2c1c(-c1ccc(Oc3ccccc3)cc1)nn2C1CCC(N2CCN(CCOCCNC(=O)CNc3cccc4c3C(=O)N(C3CCC(=O)NC3=O)C4=O)CC2)CC1 (stereo not drawn) [SB1-G-181-P1] |  |  |  |  |  |  |  |  |  | effective degradation | effective degradation |  |  |  |  |  | 

The next lines start with results.

degradation of FYN (proteomics) (FYN) | degradation of SRC (proteomics) (SRC) | degradation of BLK (proteomics) (BLK) | degradation of LCK (proteomics) (LCK) | degradation of CSK (proteomics) (CSK) | degradation of ABL1 (proteomics) (ABL1) | degradation of ABL2 (proteomics) (ABL2) | degradation of LIMK1 (proteomics) (LIMK1) | degradation of LATS1 (proteomics) (LATS1) | degradation of HCK (HCK; [4]) | degradation of BTK (BTK [1]) | degradation of HCK (HCK; vector only, BTK^WT or BTK^C481S transduced BCWM.1 WM cells, 6 hours (FIG. 5)) | degradation of HCK (HCK; vector only, BTK^WT or BTK^C481S transduced TMD8 ABC-DLBCL cells, 6 hours (FIG. 6)) | degradation of BTK (BTK [2]) | SMILES | degradation of BTK (BTK [3]) | BTK phosphorylation at Tyr-223 (Phospho-BTK (Tyr223); BTK^WT or BTK^C481S transduced BCWM.1 WM cells, 6 hours (FIG. 5)) | BTK phosphorylation at Tyr-223 (Phospho-BTK (Tyr223); BTK^WT or BTK^C481S transduced TMD8 ABC-DLBCL cells, 6 hours (FIG. 6))
degraded | degraded | degraded | degraded | degraded | degraded | degraded | degraded | degraded |  |  |  |  |  | Nc1ncnc2c1c(-c1ccc(Oc3ccccc3)cc1)nn2[C@H]1CC[C@H](N2CCN(CCCCCCNC(=O)COc3cccc4c3C(=O)N(C3CCC(=O)NC3=O)C4=O)CC2)CC1 (stereo partly drawn) [SB1-G-200] |  |  | 
 |  |  |  |  |  |  |  |  | effective degradation | effective degradation |  |  |  | Nc1ncnc2c1c(-c1ccc(Oc3ccccc3)cc1)nn2[C@H]1CC[C@H](N2CCN(CCOCCOCCOCCNC(=O)CNc3cccc4c3C(=O)N(C3CCC(=O)NC3=O)C4=O)CC2)CC1 (stereo partly drawn) [SB1-G-182-P1] |  |  | 
 |  |  |  |  |  |  |  |  | effective degradation | effective degradation | effective degradation | effective degradation | diminished | Nc1ncnc2c1c(-c1ccc(Oc3ccccc3)cc1)nn2[C@H]1CC[C@H](N2CCN(CCOCCOCCNC(=O)CNc3cccc4c3C(=O)N(C3CCC(=O)NC3=O)C4=O)CC2)CC1 (stereo partly drawn) [SB1-G-185-P1] | effective degradation | blocked | blocked
